Measured values as given in patent US5620985A, “Antimitotic binary alkaloid derivatives from catharanthus roseus” (Pierre Fabre Medicament, priority 1993, dated 1997).

Tests used:
T47D = test: MTT cytotoxicity test, T47D (growth inhibition); assay type: cell-based; details: Homo sapiens; 1 μg/ml; T47D (breast); relative to the controls; read-out: Percentage inhibition of growth T47
Procedure: (§1) Thus, the cytotoxic activity of the products was evaluated using the MTT test [T. Mosman, J. Immunol. […] The amount of formazan formed (and consequently the intensity of the color obtained) is directly proportional to the number of living cells present in the culture medium at the time of the test. The lines used are of human origin, and are marketed by the American Type Cell Collection (ATCC), the reference body for the supply of standardized strains.
(§2) The experimental procedure used is essentially that described by C.
(§3) The results are expressed in the form of a percentage inhibition of growth relative to the controls.

tubulin = test: inhibition of polymerization of tubulin into microtubules (Weisenberg); assay type: biochemical; details: variations in optical density; read-out: IC50 (concentration which causes 50% inhibition of the polymerization)
Source text: This property was confirmed by measuring the inhibition of polymerization of tubulin into microtubules in the presence of the compounds of the invention, according to the method described by R. C. Weisenberg (Science 177, 1196-7, 1972). The results are expressed as a concentration of product which causes 50% inhibition of the polymerization. This phenomenon is readily monitored and quantified via the variations in optical density.

T24 = test: MTT cytotoxicity test, T24 (growth inhibition); assay type: cell-based; details: Homo sapiens, T-24; 1 μg/ml; T24 (bladder); relative to the controls; read-out: Percentage inhibition of growth T24
Procedure: as §1, §2, §3

MCF-7 = test: MTT cytotoxicity test, MCF-7 (growth inhibition); assay type: cell-based; details: Homo sapiens, MCF7; 1 μg/ml; MCF-7 (breast); relative to the controls; read-out: Percentage inhibition of growth MCF-7
Procedure: as §1, §2, §3

J82 = test: MTT cytotoxicity test, J82 (growth inhibition); assay type: cell-based; details: Homo sapiens; 1 μg/ml; J82 (bladder); relative to the controls; read-out: Percentage inhibition of growth J82
Procedure: as §1, §2, §3

MXT adenocarcinoma = test: in vivo test on MXT adenocarcinoma grafted in B6D2F1 mice; details: for activity on the MXT model: in words, MXT adenocarcinoma model
Source text: The antitumor properties of the products of the invention were confirmed by in vivo tests, in particular on the model of mammalian MXT adenocarcinoma,which is a solid tumor that is particularly insensitive to anticancer agents [C. S. Watson, D. Medina, J. H. Clark, Cancer Res., 37, 3344 (1977); W. T. Bradher and C. A. Claridge, "Antineoplastic Agents", Wiley-Interscience (1984); T. W. Redding and A. V. Schally, Proc. Natl. Acad. Sci. U.S.A., 80, 1459 (1983)].
In this model, mice of type B6D2F1 are grafted by injection (subcutaneous) of a tumor fragment of about 10 mm^3 originating from an MXT tumor. The test products are administered via the i.p. route starting from the 17th day after the graft.

SMILES | inhibition at 1 µg/mL (T47D) | IC50 (tubulin) | inhibition at 1 µg/mL (T24) | inhibition at 1 µg/mL (MCF-7) | inhibition at 1 µg/mL (J82) | activity on the MXT model (MXT adenocarcinoma) | reduction in tumor size relative to the untreated controls (MXT adenocarcinoma; 9×40 mg/kg, i.p., starting from the 17th day after the graft)
CC[C@]12C=CCN3CC[C@@]4(c5cc([C@@]6(C(=O)OC)C[C@@H]7CC(C(C)(F)F)CN(CCc8c6[nH]c6ccccc86)C7)c(OC)cc5N(C)[C@H]4[C@@](O)(C(=O)OC)[C@@H]1O)[C@@H]32 (stereo partly drawn) [Example 12, 17-deacetyl 20'-deoxy 19',19'-difluorovinblastine] | 27% | 4200 nM | 72% | 36% | 0% | – | –
CC[C@]1(O)C[C@@H]2CN(CCc3c([nH]c4ccccc34)[C@@](C(=O)OC)(c3cc4c(cc3OC)N(C=O)[C@H]3[C@@](O)(C(=O)OC)[C@H](OC(C)=O)[C@]5(CC)C=CCN6CC[C@]43[C@@H]65)C2)C1 [vincristine] | – | – | – | – | – | devoid of activity | –
CC[C@]1(O)C[C@@H]2CN(CCc3c([nH]c4ccccc34)[C@@](C(=O)OC)(c3cc4c(cc3OC)N(C)[C@H]3[C@@](O)(C(=O)OC)[C@H](OC(C)=O)[C@]5(CC)C=CCN6CC[C@]43[C@@H]65)C2)C1 [VINBLASTINE, vinblastine, reference compound] | – | […] | – | – | – | devoid of activity | –
CC[C@]12C=CCN3CC[C@@]4(c5cc([C@@]6(C(=O)OC)C[C@@H]7CC(C(C)(F)F)CN(Cc8c6[nH]c6ccccc86)C7)c(OC)cc5N(C)[C@H]4[C@@](O)(C(=O)OC)[C@@H]1O)[C@@H]32 (stereo partly drawn) [Example 11, 17-deacetyl 19',19'-difluoro 15',20'-dihydrovinorelbine] | 30% | 2900 nM | 51% | 45% | 60% | – | –
CC[C@]12C=CCN3CC[C@@]4(c5cc([C@@]6(C(=O)OC)C[C@@H]7CC(C(C)(F)F)CN(CCc8c6[nH]c6ccccc86)C7)c(OC)cc5N(C)[C@H]4[C@@](O)(C(=O)OC)[C@@H]1OC(C)=O)[C@@H]32 (stereo partly drawn) [Example 5, 20'-deoxy 19',19'-difluorovinblastine] | 27% | 8900 nM | 50% | 36% | 15% | – | –
CC[C@]1(O)C[C@@H]2CN(CCc3c([nH]c4ccccc34)[C@@](C(=O)OC)(c3cc4c(cc3OC)N(C)[C@H]3[C@@](O)(C(N)=O)[C@H](O)[C@]5(CC)C=CCN6CC[C@]43[C@@H]65)C2)C1 [vindesine] | – | – | – | – | – | devoid of activity | –
CC[C@]12C=CCN3CC[C@@]4(c5cc([C@@]6(C(=O)OC)C[C@@H]7CC(C(C)(F)F)CN(Cc8c6[nH]c6ccccc86)C7)c(OC)cc5N(C)[C@H]4[C@@](O)(C(=O)OC)[C@@H]1OC(C)=O)[C@@H]32 (stereo partly drawn) [Example 1, 19',19'-difluoro 15',20'-dihydrovinorelbine] | 44% | 2500 nM | 70% | 68% | 45% | – | 40%
CCC1=C[C@@H]2CN(C1)Cc1c([nH]c3ccccc13)[C@@](C(=O)OC)(c1cc3c(cc1OC)N(C)[C@H]1[C@@](O)(C(=O)OC)[C@H](OC(C)=O)[C@]4(CC)C=CCN5CC[C@]31[C@@H]54)C2 [VINORELBINE, vinorelbine, reference compound] | 16% | – | 62% | 50% | 14% | devoid of activity | –
